Biological target: T1, Serpin H1 (Homo sapiens, UniProt P50454)
T1 sequence (P50454 whole entry): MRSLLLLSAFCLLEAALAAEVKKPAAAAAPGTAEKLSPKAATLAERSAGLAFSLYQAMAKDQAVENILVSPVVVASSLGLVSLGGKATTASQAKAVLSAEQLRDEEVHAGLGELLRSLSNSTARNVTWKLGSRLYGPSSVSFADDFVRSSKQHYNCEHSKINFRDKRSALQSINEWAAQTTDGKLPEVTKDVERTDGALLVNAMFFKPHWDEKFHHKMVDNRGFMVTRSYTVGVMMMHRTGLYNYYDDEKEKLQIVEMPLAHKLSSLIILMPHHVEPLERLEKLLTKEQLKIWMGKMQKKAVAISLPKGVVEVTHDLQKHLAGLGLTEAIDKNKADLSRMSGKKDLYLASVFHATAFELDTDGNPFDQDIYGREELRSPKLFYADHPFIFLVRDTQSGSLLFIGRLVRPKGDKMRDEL
Assay: Inhibitory concentration against Hsp47 collagen chaperone in turbidity assay

`Cc1cc(C(=O)CSc2nc(O)c(C#N)c(-c3cccs3)n2)ccc1Cl` gave an IC50 of 6.3 µM.

Compound `Nc1ccc(SC(C[N+](=O)[O-])c2ccc(F)cc2)cc1` (centres undefined) has an IC50 of 26.6 µM.

Compound `COc1ccc(C(C[N+](=O)[O-])Sc2ccc(N)cc2)cc1` (centres undefined) has an IC50 of 26.6 µM.

In the case of `COC(=O)c1cc(Cl)cc2c1N[S+]([O-])S2` (centres undefined), the IC50 is reported as 3.1 µM.
